According to patent publication US20260060982A1, “USE OF BTK INHIBITOR AND SINGLE-DOSE DRUG” (HUBEI BIO-PHARMACEUTICAL INDUSTRIAL TECHNOLOGICAL INSTITUTE …, priority 2023, published 2026):

System: PG-PS-induced arthritis in Lewis rats
Test: PG-PS-induced arthritis model in rats
Type: in vivo
Conditions: for joint tissue lesions (pathology): day 30
Description: Intraperitoneal injection of PG-PS suspension can effectively induce chronic, erosive, and relapsing symptoms similar to human rheumatoid arthritis in rats, and is often used to evaluate the in vivo effectiveness of medicaments in the early discovery of arthritis medicaments. The specific steps were as follows:
On day 0, Lewis rats were randomly divided into 6 groups, with 5 rats in the first group and 10 rats in each group from the second group to the sixth group. All rats in the second to sixth groups were intraperitoneally injected with PG-PS (Lee Laboratories, PG-PS 10S, 5.1 mg/ml Rhamnose) to establish the model. The PG-PS injection dose v=15 μg/g×bw (rat weight, in g)/5.1 μg/μL.
On day 1, the model rats (the second to sixth groups) were randomly redivided into 5 groups, with 10 rats in each group. The animals in each group were given the corresponding medicament or vehicle by gavage once a day until the 29th day. […] Clinical observations and clinical scoring were performed daily during the administration period. The ankle diameter of each animal after modeling was subtracted from its ankle diameter before modeling to obtain the ankle diameter difference (delta ankle diameter). The area under the curve (AUC) was calculated by analyzing the ankle diameter difference of each animal in each group. The inhibition rate of each administration group relative to the blank vehicle control was calculated by the average AUC between groups.
Pathology: On day 30, the rats were euthanized. The two hind limbs of rats were stained with toluidine blue to evaluate the degree of joint damage in terms of inflammatory cell lesions, pannus formation, cartilage damage, bone resorption, and periosteal new bone formation, and the severity was scored on a scale from 0 to 7.

## C=CC(=O)N1CCC[C@@H](n2nc(-c3ccc(Oc4ccccn4)cc3)c3c(N)n[nH]c(=O)c32)C1 [compound (I), (R)-1-(1-acryloylpiperidin-3-yl)-4-amino-3-(4-(pyridin-2-yloxy)phenyl)-1H-pyrazolo[3,4-d]pyridazin-7(6H)-one]
1 mg/kg once a day by gavage until the 29th day
  inhibition rate (AUC of ankle diameter difference vs blank vehicle control): 47.7%
1 mg/kg
  joint tissue lesions (pathology): trend of alleviating tissue damage
3 mg/kg once a day by gavage until the 29th day
  inhibition rate (AUC of ankle diameter difference vs blank vehicle control): 64.7%
3 mg/kg
  joint tissue lesions (pathology): significant improvement effect
10 mg/kg once a day by gavage until the 29th day
  inhibition rate (AUC of ankle diameter difference vs blank vehicle control): 77.3%
10 mg/kg
  joint tissue lesions (pathology): significant improvement effect
